Results as given in patent US6410544B1, “Cholinergic agents in the treatment of presbyopia” (Allergan Sales, Inc., priority 1998, dated 2002).
Entries after “also recorded” stand apart in the source; their conditions may differ.

Legend:
[1] = test system: eye of a presbyopic myope; test: Hartinger refractometry at distance and near after one topical drop, myopic presbyope; assay type: in vivo, human; conditions: for Mean Refraction, Near OS: +1.50 sphere in the right eye for near fixation; for Mean Refraction, Near OD: +1.75 sphere in the left eye for near fixation
Method: (§1) This clinical study was designed to evaluate the effect of a low dose muscarinic agent such as Pilocarpine from 0.001% to less than 2% by weight values on the refractive status of the eye.
(§2) One drop of Pilocarpine 0.3% was administered topically to the eye of a presbyopic myope and hyperope, before and after Hartinger Refractometry at distance and near was performed by the same observer.
(§3) Refraction at distance and near was performed with the Hartinger Refractomer by the same observer prior to installation of Pilcarpine 0.3%. Three measurements were taken at distance and at near for each eye tested at each timepoint.
(§4) In the myopic presbyope, both eyes received Piolcarpine 0.3%. In the hyperopic presbyope, only the right eye received Pilocarpine 0.3%.
(§5) At approximately 30-50 and 60-90 minutes post installation of Pilocarpine, refraction measurements were repeated.

[2] = test system: eye of a presbyopic hyperope; test: Hartinger refractometry at distance and near after one topical drop, hyperopic presbyope; assay type: in vivo, human
Method: as §1, §2, §3, §4, §5

pupil size = test: Observation of pupil size in the refractometry study; assay type: in vivo, human; conditions: after one topical drop, myopic and hyperopic presbyope
[3] = test system: eye of a human adult with presbyopia; test: Eye drop formulation given to a human adult with presbyopia; assay type: in vivo; conditions: 0.1% weight/volume in base solution pH 6.4, human adult with presbyopia
Method: In a specific example of this invention, a base solution can be formulated as follows: Sodium Chloride 0.3%; Edetate Disodium 0.1%; Boric Acid 1.0%; Benzaliconium Chloride 0.01% Sodium Hydroxide (adjust to pH 6.4) and Water. Pilocarpine, at a concentration of 0.1% weight/volume, is added to the base solution. The above formulation is administered to the eye of a human adult with presbyopia, shown by their discomfort when reading, or their inability to read fine print.

[4] = test system: eye of a presbyopic myope; test: Hartinger refractometry at distance and near after one topical drop, myopic presbyope; assay type: in vivo, human; conditions: single measurements, time point printed '30 min, 3:45 pm'

With `CC[C@@H]1C(=O)OC[C@@H]1Cc1cncn1C` [Pilocarpine 0.3%, Pilocarpine] the “change in distance and near myopic correction” value ([1]; 30 and 60 minutes post dosing) was “small but definite decrease in the distance and near myopic correction which was greater at 60 than 30 minutes post dosing”, the “Mean Refraction, Distance OD” value ([1]; 30 min post instillation) was −1.06 diopters and the “Mean Refraction, Near OS” value ([1]; 30 min post instillation) was −1.53 diopters. The “Mean Refraction, Near OD” value ([1]; 30 min post instillation) was −1.8 diopters, the “Mean Refraction, Distance OD” value ([1]; 60 min post instillation) was −1.05 diopters and the “Mean Refraction, Distance OS” value ([1]; 60 min post instillation) was −1.25 diopters. The “Mean Refraction, Near OS” value ([1]; 60 min post instillation) was −0.95 diopters, the “Mean Refraction, Near OD” value ([1]; 60 min post instillation) was −1.5 diopters and the “Mean Refraction, Distance OD” value ([2]; 50 min post instillation) was “+1.15 diopters”. The “Mean Refraction, Near OD” value ([2]; 50 min post instillation, +2.5 sphere in the left eye for near fixation) was “+0.17 diopters”, the “Mean Refraction, Distance OD” value ([2]; 90 min post instillation) was “+0.42 diopters” and the “Mean Refraction, Near OD” value ([2]; 90 min post instillation, +2.50 sphere in the left eye for near fixation) was “+0.38 diopters”. For the same molecule, the “change in distance and near hyperopic correction” value ([2]; 90 minutes post dosing) was “small but definite decrease in the distance and near hyperopic correction”, the “change in pupil size” value (pupil size) was “no notable change in pupil size; also recorded: no observable effect on pupil size” and the “vision after administration of the eye drops” value [3] was “Vision is improved”. The “Refraction, Distance OS” value [4] was −1.25 diopters and the “Refraction, Near OD” value [4] was −1.5 diopters.
